Test results taken from ChEMBL document CHEMBL1146714, “Peptidyl hydroxamic acids as methionine aminopeptidase inhibitors” (Bioorg Med Chem Lett, 2004).

Key:
[1] = Inhibitory activity against methionine Escherichia coli aminopeptidase (MetAP)
[2] = molecular target: Methionine aminopeptidase 2 (Homo sapiens, UniProt P50579); test: Inhibitory activity against Methionine aminopeptidase 2
Chain of Methionine aminopeptidase 2 (P50579 whole entry): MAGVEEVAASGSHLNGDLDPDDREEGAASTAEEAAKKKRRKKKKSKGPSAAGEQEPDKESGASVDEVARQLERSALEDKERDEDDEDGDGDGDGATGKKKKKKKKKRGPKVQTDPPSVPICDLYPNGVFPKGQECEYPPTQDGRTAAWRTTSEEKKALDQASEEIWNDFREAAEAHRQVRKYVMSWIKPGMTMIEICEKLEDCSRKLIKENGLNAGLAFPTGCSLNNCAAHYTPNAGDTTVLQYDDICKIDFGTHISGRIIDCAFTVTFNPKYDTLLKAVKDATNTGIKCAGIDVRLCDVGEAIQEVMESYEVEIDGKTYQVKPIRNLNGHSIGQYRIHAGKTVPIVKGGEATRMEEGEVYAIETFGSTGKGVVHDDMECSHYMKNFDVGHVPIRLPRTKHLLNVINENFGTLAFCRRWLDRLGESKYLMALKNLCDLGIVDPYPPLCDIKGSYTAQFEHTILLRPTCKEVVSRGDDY

| Ki [2] [µM] | SMILES | Ki [1] [µM] |
| --- | --- | --- |
| 600 | C[C@@H](N)C(=O)N(O)CC(=O)O | 8.8 |
| 164 | CCCC[C@H](N)C(=O)N(O)CC(=O)NCCc1ccccn1 | 59 |
| 1300 | CSCC[C@H](N)C(=O)N(O)CC(=O)O | 170 |

More lines, now with the values behind:

| SMILES | Ki [2] [µM] | Ki [1] [µM] |
| --- | --- | --- |
| CCCC[C@H](N)C(=O)N(O)CCC(=O)NCCc1ccccn1 | – | 48 |
| CSCC[C@H](N)C(=O)N(O)CC(=O)NCCc1ccccn1 | – | 2.5 |
